Results: patent US20230143775A1, “METHODS OF TREATING CORONAVIRUS INFECTIONS” (EAGLE PHARMACEUTICALS, INC., priority 2020, published 2023)
In brackets after ≈: the same amount, converted by molar mass.

Columns and labels:
[1] = test system: SARS-CoV-2; experiment: Virus neutralization (VN) assay, scoring SARS-CoV-2 cytopathic effects (CPE) in Vero E6 cells; type: cell-based; conditions: for Day 2 Read (CPE) / Day 4 Read (CPE) / Day 6 Read (CPE): triplicate wells
[2] = test system: uninfected Vero E6 cells; conditions: lower dilutions (<50 μM dantrolene), without virus
[3] = 20 μM dantrolene (as […]), […], Vero E6 cells
[4] = 30 μM dantrolene (as […]), […], Vero E6 cells
[5] = 40 μM dantrolene (as […]), […], Vero E6 cells

## O=C1CN(/N=C/c2ccc(-c3ccc([N+](=O)[O-])cc3)o2)C(O)=N1 [dantrolene]
[1]; [3]
  Day 2 Read (CPE): 3/3 wells had No CPE
  Day 4 Read (CPE): 3/3 wells had No CPE
  Day 6 Read (CPE): 3/3 wells had No CPE
[1]; [4]
  Day 2 Read (CPE): 3/3 wells had No CPE
  Day 4 Read (CPE): 3/3 wells had No CPE
  Day 6 Read (CPE): 3/3 wells had No CPE
[1]; [5]
  Day 2 Read (CPE): 3/3 wells had No CPE
  Day 4 Read (CPE): 3/3 wells had No CPE
  Day 6 Read (CPE): 3/3 wells had No CPE
[1]; 100 μM dantrolene (as […]), […], Vero E6 cells
  Day 6 Read (CPE): 3/3 wells had >90%
[1]; 20-40 μM of dantrolene, […]
  CPE: no CPE was observed
[1]; 20 and 40 μM dantrolene, all timepoints
  cytopathic effects (indicating virus growth): No cytopathic effects
[1]; Severe acute respiratory syndrome coronavirus 2, no CPE across all time points (Days 2, 4, 6), Vero E6 cells, read-out: minimum inhibitory concentration
  MIC: 20 µM (≈ 6.29 µg/mL)
[1]; lower concentrations of 10 and 5 μM
  anti-viral activity: showed anti-viral activity
[2]
  cell viability of uninfected Vero E6 cells: good cell viability
